Experiment [1] deals with PI 3-kinase gamma (Homo sapiens, UniProt P48736). In words: TR-FRET Adapta assay, assay E. The format is biochemical. The conditions noted are these: read-out: Assay E PI3Kγ IC50. (TR-FRET usually uses a lanthanide donor and a delayed reading to cut background.)
For experiment [2], the target named is PI 3-kinase beta (Homo sapiens, UniProt P42338). Briefly: Kinase Glo Luminescent Kinase Assay (Kglo), assay B. The format is biochemical. The conditions noted are these: read-out: Assay B PI3Kβ IC50. A general note: In Kinase-Glo more light means more ATP remaining.
The target of experiment [3] is PI 3-kinase delta (Homo sapiens, UniProt O00329). Briefly: TR-FRET Adapta assay, assay F.
Experiment [4] deals with mTOR (Homo sapiens, UniProt P42345). Briefly: Lanthascreen kinase binding assay, assay G. The conditions noted are these: read-out: Assay G mTOR IC50.
Procedure: Lanthascreen™ Kinase Binding Assay for mTOR (G)
Binding of an inhibitor to the kinase competes for binding with the tracer, resulting in a loss of FRET.
50 nL of compound dilutions were dispensed onto white 384-well small volume polystyrene plate.
In experiment [5] the target is PI 4-kinase beta (Homo sapiens, UniProt Q9UBF8). Briefly: Kinase Glo Luminescent Kinase Assay (Kglo), assay D. The format is biochemical. The conditions noted are these: read-out: Assay D PI4Kβ IC50.
Experiment [6] concerns the target PI 3-kinase alpha (Homo sapiens, UniProt P42336). Briefly: Kinase Glo Luminescent Kinase Assay (Kglo), assay A. The format is biochemical. Conditions: read-out: Assay A PI3Kα IC50.
Experiment [7] concerns the target Vps34 (Homo sapiens, UniProt Q8NEB9). In words: Kinase Glo Luminescent Kinase Assay (Kglo), assay C. The format is biochemical. The conditions noted are these: read-out: Assay C VPS34 IC50.

Where a name gives a salt, the structure may show the parent alone. Read-outs that look alike come from different tables or passages of the source. Bounds are passed on as bounds.

PI 3-kinase gamma, sequence (P48736 whole entry): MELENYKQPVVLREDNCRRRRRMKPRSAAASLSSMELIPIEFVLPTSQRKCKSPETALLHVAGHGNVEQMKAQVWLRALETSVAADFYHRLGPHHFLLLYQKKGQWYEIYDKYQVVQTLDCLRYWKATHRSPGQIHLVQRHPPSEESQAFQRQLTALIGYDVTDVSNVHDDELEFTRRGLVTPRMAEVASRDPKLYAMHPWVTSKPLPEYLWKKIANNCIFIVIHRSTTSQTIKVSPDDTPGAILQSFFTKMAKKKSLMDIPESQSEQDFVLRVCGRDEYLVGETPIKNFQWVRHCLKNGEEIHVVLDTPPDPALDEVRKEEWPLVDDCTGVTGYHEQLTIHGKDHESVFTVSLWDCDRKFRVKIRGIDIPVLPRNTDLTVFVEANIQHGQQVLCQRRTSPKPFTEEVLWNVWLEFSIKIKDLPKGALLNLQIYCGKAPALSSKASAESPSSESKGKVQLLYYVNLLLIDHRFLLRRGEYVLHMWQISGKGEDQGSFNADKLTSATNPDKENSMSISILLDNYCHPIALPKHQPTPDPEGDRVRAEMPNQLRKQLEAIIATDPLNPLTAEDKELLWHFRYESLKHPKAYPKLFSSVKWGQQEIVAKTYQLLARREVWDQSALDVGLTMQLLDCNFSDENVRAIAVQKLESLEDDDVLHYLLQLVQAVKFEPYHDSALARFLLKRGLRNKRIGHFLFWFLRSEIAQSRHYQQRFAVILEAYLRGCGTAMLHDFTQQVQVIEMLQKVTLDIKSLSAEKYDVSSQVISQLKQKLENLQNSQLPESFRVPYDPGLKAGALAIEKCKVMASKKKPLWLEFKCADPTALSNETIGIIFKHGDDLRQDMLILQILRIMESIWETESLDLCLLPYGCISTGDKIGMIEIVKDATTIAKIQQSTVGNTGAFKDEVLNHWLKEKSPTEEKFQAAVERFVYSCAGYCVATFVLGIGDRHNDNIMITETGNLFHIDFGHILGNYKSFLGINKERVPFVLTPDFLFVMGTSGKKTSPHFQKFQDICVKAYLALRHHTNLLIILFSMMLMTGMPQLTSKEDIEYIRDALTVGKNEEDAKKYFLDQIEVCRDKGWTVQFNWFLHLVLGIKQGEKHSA
Vps34, sequence (Q8NEB9 whole entry, species assumed): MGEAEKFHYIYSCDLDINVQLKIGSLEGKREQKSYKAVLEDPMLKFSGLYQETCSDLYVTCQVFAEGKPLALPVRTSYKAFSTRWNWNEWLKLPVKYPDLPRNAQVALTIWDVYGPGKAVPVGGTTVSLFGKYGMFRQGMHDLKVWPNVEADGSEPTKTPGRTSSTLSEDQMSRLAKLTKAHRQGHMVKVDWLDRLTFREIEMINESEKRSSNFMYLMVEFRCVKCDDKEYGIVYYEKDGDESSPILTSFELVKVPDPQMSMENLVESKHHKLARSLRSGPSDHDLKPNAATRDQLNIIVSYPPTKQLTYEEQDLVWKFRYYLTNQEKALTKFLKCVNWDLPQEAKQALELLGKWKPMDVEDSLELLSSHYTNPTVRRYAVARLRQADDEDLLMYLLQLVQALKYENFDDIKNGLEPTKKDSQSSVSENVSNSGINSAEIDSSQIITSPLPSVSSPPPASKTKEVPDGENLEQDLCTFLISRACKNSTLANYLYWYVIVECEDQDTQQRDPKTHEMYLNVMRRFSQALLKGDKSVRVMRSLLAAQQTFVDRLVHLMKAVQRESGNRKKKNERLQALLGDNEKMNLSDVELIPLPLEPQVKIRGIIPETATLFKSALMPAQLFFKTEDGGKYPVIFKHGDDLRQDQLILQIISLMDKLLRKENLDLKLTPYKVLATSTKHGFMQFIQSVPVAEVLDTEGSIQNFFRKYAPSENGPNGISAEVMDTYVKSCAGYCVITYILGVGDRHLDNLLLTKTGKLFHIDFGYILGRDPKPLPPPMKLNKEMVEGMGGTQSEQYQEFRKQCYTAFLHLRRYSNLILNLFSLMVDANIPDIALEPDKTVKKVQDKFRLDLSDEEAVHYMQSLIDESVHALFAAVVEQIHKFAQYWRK
PI 3-kinase beta, sequence (P42338 whole entry): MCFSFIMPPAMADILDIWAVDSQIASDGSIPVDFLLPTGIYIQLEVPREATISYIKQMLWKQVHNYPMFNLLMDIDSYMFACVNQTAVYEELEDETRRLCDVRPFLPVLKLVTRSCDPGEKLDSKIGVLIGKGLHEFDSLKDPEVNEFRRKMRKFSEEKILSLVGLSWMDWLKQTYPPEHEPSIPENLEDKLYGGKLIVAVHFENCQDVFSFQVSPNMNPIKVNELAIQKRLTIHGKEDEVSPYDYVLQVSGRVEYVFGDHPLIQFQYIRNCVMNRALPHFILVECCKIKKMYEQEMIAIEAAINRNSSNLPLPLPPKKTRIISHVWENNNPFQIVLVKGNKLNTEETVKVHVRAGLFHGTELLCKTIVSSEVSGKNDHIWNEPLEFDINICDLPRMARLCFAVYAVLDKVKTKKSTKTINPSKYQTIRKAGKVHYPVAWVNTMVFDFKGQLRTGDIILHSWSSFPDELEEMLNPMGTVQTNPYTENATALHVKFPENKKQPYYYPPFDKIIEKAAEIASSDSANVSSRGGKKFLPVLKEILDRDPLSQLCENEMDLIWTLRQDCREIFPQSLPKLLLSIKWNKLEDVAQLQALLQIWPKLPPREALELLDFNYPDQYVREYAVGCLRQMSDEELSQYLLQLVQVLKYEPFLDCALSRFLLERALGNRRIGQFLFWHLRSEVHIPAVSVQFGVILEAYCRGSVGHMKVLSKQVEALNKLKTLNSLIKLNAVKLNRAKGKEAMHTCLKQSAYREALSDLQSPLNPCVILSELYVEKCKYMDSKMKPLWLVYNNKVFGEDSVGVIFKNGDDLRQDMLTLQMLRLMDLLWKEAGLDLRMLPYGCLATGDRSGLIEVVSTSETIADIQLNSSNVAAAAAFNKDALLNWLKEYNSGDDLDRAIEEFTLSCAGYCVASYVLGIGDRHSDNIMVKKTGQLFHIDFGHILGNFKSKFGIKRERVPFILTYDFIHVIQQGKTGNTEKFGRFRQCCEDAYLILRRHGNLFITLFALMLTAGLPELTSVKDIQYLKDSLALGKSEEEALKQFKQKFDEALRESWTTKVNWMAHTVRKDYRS
PI 3-kinase beta, sequence (P27986 461-568 partner): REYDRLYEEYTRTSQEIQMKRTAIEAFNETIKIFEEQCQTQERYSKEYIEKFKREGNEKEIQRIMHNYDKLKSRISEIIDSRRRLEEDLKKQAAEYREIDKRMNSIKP
PI 3-kinase delta, sequence (O00329 whole entry): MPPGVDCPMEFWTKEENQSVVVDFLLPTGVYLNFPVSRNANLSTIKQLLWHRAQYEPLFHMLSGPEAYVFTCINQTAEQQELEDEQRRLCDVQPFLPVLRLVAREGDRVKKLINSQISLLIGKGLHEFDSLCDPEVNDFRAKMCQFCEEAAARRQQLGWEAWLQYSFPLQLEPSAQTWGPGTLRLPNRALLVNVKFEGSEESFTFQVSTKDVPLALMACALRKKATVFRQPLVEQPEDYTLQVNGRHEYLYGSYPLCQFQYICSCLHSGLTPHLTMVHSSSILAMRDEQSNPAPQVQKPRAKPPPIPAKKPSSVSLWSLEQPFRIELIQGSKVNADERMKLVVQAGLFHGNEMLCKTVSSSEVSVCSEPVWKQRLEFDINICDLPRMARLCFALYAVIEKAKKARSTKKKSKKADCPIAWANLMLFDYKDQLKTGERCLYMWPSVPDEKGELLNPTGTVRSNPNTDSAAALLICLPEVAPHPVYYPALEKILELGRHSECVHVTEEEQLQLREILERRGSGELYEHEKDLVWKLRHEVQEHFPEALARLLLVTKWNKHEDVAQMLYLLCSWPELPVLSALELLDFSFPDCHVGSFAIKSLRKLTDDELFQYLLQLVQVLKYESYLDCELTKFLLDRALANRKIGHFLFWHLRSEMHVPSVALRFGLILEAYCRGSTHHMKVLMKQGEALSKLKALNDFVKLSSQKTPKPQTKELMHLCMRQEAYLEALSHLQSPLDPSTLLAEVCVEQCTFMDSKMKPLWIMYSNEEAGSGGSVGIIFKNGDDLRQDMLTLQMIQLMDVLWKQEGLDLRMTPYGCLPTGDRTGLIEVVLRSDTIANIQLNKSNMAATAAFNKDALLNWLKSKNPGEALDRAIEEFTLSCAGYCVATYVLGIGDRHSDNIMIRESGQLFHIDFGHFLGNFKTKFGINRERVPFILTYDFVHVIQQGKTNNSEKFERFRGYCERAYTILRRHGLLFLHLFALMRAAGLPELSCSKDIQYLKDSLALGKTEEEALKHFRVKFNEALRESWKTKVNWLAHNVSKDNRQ
PI 3-kinase delta, sequence (P27986 461-568 partner): as the sequence (P27986 461-568 partner) above
PI 4-kinase beta, sequence (Q9UBF8 whole entry): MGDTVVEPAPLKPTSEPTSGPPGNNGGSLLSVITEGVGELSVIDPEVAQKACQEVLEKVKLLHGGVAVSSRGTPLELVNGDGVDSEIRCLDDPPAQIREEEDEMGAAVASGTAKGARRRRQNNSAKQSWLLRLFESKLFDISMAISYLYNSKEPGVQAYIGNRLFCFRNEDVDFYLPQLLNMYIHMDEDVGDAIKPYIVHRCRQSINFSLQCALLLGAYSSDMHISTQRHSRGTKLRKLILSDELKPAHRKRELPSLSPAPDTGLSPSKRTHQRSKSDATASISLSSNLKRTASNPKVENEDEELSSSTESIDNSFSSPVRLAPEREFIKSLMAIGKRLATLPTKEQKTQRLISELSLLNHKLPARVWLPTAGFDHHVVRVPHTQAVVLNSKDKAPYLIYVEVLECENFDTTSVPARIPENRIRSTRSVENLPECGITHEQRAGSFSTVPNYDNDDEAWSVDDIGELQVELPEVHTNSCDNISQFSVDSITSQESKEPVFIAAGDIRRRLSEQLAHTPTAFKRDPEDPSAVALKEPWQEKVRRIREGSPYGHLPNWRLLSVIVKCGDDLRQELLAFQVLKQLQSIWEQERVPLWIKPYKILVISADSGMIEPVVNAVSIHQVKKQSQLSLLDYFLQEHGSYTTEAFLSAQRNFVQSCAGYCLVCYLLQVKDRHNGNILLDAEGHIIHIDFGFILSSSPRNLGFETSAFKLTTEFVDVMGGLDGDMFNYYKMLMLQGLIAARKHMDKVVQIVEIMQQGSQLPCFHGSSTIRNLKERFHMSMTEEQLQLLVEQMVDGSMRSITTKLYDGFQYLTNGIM

Consider `Cc1ccc(S(=O)(=O)N[C@@H]2CNC[C@H]2O)cc1-c1cnc(N)c(-n2cncn2)n1` [Example 127.60, 3-(5-amino-6-(1H-1,2,4-triazol-1-yl)pyrazin-2-yl)-N-((3R,4R)-4-hydroxypyrrolidin-3-yl)-4-methylbenzenesulfonamide trifluoroacetic acid salt], for which the IC50 (in general, the midpoint of a concentration-inhibition curve) in experiment [1] was 0.14 µM; in experiment [2], 0.73 µM; in experiment [3] it was 2.4 µM; in experiment [4], greater than 10 µM; in experiment [5], 3.3 µM; in experiment [6], 0.96 µM. Also, the IC50 in experiment [7] was greater than 10 µM.
As to `Cc1cc(-c2nc(-c3cc(S(=O)(=O)NCC4(O)CCCCC4)ccc3C)cnc2N)ccn1` [Example 129.4, 3-(5-amino-6-(2-methylpyridin-4-yl)pyrazin-2-yl)-N-((1-hydroxycyclohexyl)methyl)-4-methylbenzenesulfonamide], the half-maximal inhibitory concentration (IC50) in experiment [1] was 0.069 µM; in experiment [2] it was greater than 9.1 µM; in experiment [3] (read-out: Assay F PI3Kδ IC50), 0.43 µM; in experiment [4] it was 5 µM; in experiment [5], greater than 9.1 µM; in experiment [6], 0.19 µM. Moreover, the IC50 in experiment [7] is greater than 9.1 µM.
In the case of `CC[C@@H](CO)NS(=O)(=O)c1ccc(C)c(-c2cnc(N)c(-c3ccnc(C)c3)n2)c1` [Example 129.6, (S)-3-(5-amino-6-(2-methylpyridin-4-yl)pyrazin-2-yl)-N-(1-hydroxybutan-2-yl)-4-methylbenzenesulfonamide], the IC50 in experiment [1] is 0.27 µM; in experiment [2], greater than 9.1 µM; in experiment [3] (read-out: Assay F PI3Kδ IC50) it was 2.8 µM; in experiment [4], greater than 9.1 µM; in experiment [5], greater than 9.1 µM; in experiment [6], 0.74 µM. Further, in experiment [7], the IC50 was greater than 9.1 µM.
Regarding `CC[C@H](CO)NS(=O)(=O)c1ccc(C)c(-c2cnc(N)c(-c3ccnc(C)c3)n2)c1` [Example 129.7, (R)-3-(5-amino-6-(2-methylpyridin-4-yl)pyrazin-2-yl)-N-(1-hydroxybutan-2-yl)-4-methylbenzenesulfonamide], the IC50 in experiment [1] was 0.27 µM; in experiment [2], greater than 9.1 µM; in experiment [3] (read-out: Assay F PI3Kδ IC50) it was 3.3 µM; in experiment [4], 7.8 µM; in experiment [5] it was greater than 9.1 µM; in experiment [6] it was 0.9 µM. The IC50 in experiment [7] is greater than 9.1 µM.
For `Cc1cc(-c2nc(-c3cc(S(=O)(=O)NC4CCOCC4)ccc3C)cnc2N)ccn1` [Example 129.10, 3-(5-amino-6-(2-methylpyridin-4-yl)pyrazin-2-yl)-4-methyl-N-(tetrahydro-2H-pyran-4-yl)benzenesulfonamide], the IC50 in experiment [1] is 0.027 µM; in experiment [2] it was greater than 9.1 µM; in experiment [3] (read-out: Assay F PI3Kδ IC50), 0.94 µM; in experiment [4] it was greater than 9.1 µM; in experiment [5] it was 6.2 µM; in experiment [6], 0.55 µM. Besides, in experiment [7], the IC50 is greater than 9.1 µM.
Regarding `COC(C)(C)CNS(=O)(=O)c1ccc(C)c(-c2cnc(N)c(-c3ccnc(C)c3)n2)c1` [Example 129.15, 3-(5-amino-6-(2-methylpyridin-4-yl)pyrazin-2-yl)-N-(2-methoxy-2-methylpropyl)-4-methylbenzenesulfonamide], the IC50 in experiment [1] was 0.24 µM; in experiment [2] it was greater than 9.1 µM; in experiment [3] (read-out: Assay F PI3Kδ IC50), 2.1 µM; in experiment [4] it was greater than 9.1 µM; in experiment [5], greater than 9.1 µM; in experiment [6], 1.9 µM. The IC50 in experiment [7] is greater than 9.1 µM.
On to `Cc1cc(-c2nc(-c3cc(S(=O)(=O)NCC4CCCCO4)ccc3C)cnc2N)ccn1` (stereo not shown) [Example 129.16, 3-(5-amino-6-(2-methylpyridin-4-yl)pyrazin-2-yl)-4-methyl-N-((tetrahydro-2H-pyran-2-yl)methyl)benzenesulfonamide], for which the IC50 in experiment [1] was 0.066 µM; in experiment [2] it was greater than 9.1 µM; in experiment [3] (read-out: Assay F PI3Kδ IC50), 2 µM; in experiment [4], greater than 9.1 µM; in experiment [5], greater than 9.1 µM; in experiment [6], 0.63 µM. Also, in experiment [7], the IC50 is greater than 9.1 µM.
As for `Cc1cc(-c2nc(-c3cc(S(=O)(=O)NC[C@@](C)(O)C(F)(F)F)ccc3C)cnc2N)ccn1` [Example 129.20, (R)-3-(5-amino-6-(2-methylpyridin-4-yl)pyrazin-2-yl)-4-methyl-N-(3,3,3-trifluoro-2-hydroxy-2-methylpropyl)benzenesulfonamide], the IC50 was 0.11 µM in experiment [1]; 8.5 µM in experiment [2]; 0.29 µM in experiment [3] (read-out: Assay F PI3Kδ IC50); greater than 9.1 µM in experiment [4]; greater than 9.1 µM in experiment [5]; 0.32 µM in experiment [6]. Further, the IC50 in experiment [7] was greater than 9.1 µM.
For the compound `Cc1cc(-c2nc(-c3cc(S(=O)(=O)NC4CCN(C)CC4)ccc3C)cnc2N)ccn1` [Example 129.22, 3-(5-amino-6-(2-methylpyridin-4-yl)pyrazin-2-yl)-4-methyl-N-(1-methylpiperidin-4-yl)benzenesulfonamide], the IC50 in experiment [1] was 0.28 µM; in experiment [2], greater than 9.1 µM; in experiment [3] (read-out: Assay F PI3Kδ IC50), 7.5 µM; in experiment [4], greater than 9.1 µM; in experiment [5], greater than 9.1 µM; in experiment [6], 1.5 µM. Also, in experiment [7], the IC50 is greater than 9.1 µM.
Regarding `CCN(CC)CCCNS(=O)(=O)c1ccc(C)c(-c2cnc(N)c(-c3ccnc(C)c3)n2)c1` [Example 129.23, 3-(5-amino-6-(2-methylpyridin-4-yl)pyrazin-2-yl)-N-(3-(diethylamino)propyl)-4-methylbenzenesulfonamide], the IC50 in experiment [1] was 0.38 µM; in experiment [2], 3.3 µM; in experiment [3] (read-out: Assay F PI3Kδ IC50), 1.9 µM; in experiment [4] it was greater than 9.1 µM; in experiment [5] it was greater than 9.1 µM; in experiment [6] it was 2.8 µM. In addition, the IC50 in experiment [7] is greater than 9.1 µM.
Take `Cc1cc(-c2nc(-c3cc(S(=O)(=O)NCCN(C)C)ccc3C)cnc2N)ccn1` [Example 129.26, 3-(5-amino-6-(2-methylpyridin-4-yl)pyrazin-2-yl)-N-(2-(dimethylamino)ethyl)-4-methylbenzenesulfonamide]: the IC50 in experiment [1] was 0.59 µM; in experiment [2], 1.7 µM; in experiment [3] (read-out: Assay F PI3Kδ IC50), 1.6 µM; in experiment [4], greater than 9.1 µM; in experiment [5], greater than 9.1 µM; in experiment [6] it was 1.6 µM. The IC50 in experiment [7] is greater than 9.1 µM.
For the compound `Cc1cc(-c2nc(-c3cc(S(=O)(=O)NCCN4CCCC4)ccc3C)cnc2N)ccn1` [Example 129.27, 3-(5-amino-6-(2-methylpyridin-4-yl)pyrazin-2-yl)-4-methyl-N-(2-(pyrrolidin-1-yl)ethyl)benzenesulfonamide], the IC50 is 0.76 µM in experiment [1]; greater than 9.1 µM in experiment [2]; 2.1 µM in experiment [3] (read-out: Assay F PI3Kδ IC50); greater than 9.1 µM in experiment [4]; greater than 9.1 µM in experiment [5]; 9 µM in experiment [6]. Besides, the IC50 in experiment [7] was greater than 9.1 µM.
Regarding `Cc1cc(-c2nc(-c3cc(S(=O)(=O)NCC4CCN(C)C4)ccc3C)cnc2N)ccn1` (stereo not shown) [Example 129.30, 3-(5-amino-6-(2-methylpyridin-4-yl)pyrazin-2-yl)-4-methyl-N-((1-methylpyrrolidin-3-yl)methyl)benzenesulfonamide], the IC50 is 0.041 µM in experiment [1]; greater than 9.1 µM in experiment [2]; 1.2 µM in experiment [3] (read-out: Assay F PI3Kδ IC50); greater than 9.1 µM in experiment [4]; greater than 9.1 µM in experiment [5]; 5.4 µM in experiment [6]. The IC50 in experiment [7] is greater than 9.1 µM.

The values are drawn from patent publication US10004732B2 (Novartis AG, priority 2014, dated 2018).
